Among the data in patent US10034886B2, “GLP-1 receptor modulators” (Celgene International II SÀRL, priority 2014, dated 2018) are EC50 values, retold here.

The assay concerns the target T1, GLP-1R (Homo sapiens, UniProt P43220).
T1 construct: host or cells: GLP-1R CRE-bla CHO-K1 cells
As to the kind of experiment: EC20 GLP-1(9-36) PAM cAMP assay: dose response of compound in the presence of fixed concentration of GLP-1(9-36). It counts as cell-based. Conditions: GLP-1R CRE-bla CHO-K1 cells, read-out: EC20 GLP-1(9-36) PAM EC50. The method, boiled down:
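GLP-1R CRE-bla CHO-K1 cells treated 30 min at 37 °C with 12-point compound dose response plus fixed EC20 GLP-1(9-36), with IBMX, in HBSS/HEPES/0.1% BSA pH 7.4. Total cAMP measured by luminescent detection against standard curve; EC50 and Emax from non-linear regression.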

[1] abbreviates: compound dose response with fixed concentration of GLP-1(9-36).
Where [2] appears, read: dose response of compound in presence of fixed concentration of GLP-1(9-36).

Read-outs that look alike come from different tables or passages of the source. Bounds are passed on as bounds.

T1 sequence (P43220 24-463): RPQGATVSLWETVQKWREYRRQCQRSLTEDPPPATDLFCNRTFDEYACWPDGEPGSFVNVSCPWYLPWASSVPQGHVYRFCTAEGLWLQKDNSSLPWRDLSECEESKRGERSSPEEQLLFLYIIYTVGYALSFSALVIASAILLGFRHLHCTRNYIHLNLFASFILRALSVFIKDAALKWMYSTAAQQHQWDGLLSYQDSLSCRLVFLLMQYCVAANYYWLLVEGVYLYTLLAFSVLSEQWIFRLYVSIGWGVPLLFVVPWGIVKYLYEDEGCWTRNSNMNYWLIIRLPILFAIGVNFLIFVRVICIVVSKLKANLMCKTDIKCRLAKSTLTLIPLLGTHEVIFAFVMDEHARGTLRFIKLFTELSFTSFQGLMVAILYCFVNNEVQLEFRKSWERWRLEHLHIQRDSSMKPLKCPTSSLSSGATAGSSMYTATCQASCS
T1 sequence (P01275 100-127 partner limits assumed): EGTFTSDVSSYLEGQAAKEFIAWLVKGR

Broadly, the EC50 is the concentration needed to bring the measured effect to its halfway point. As to `CC(C)(C)c1ccc(C2CCN(c3cnc(-c4ccc(C[C@H](NC(=O)c5ccc(C(C)(C)C)s5)C(=O)N5CC(C(=O)O)C5)cc4)nc3)CC2)cc1` [Compound 1493], the EC50 under setting [1] is below 800 nM.

On to `CC(C)COc1ccc(-c2cnc(-c3ccc(C[C@H](NC(=O)c4ccc(C(C)(C)C)s4)C(=O)NC(C(=O)O)C(O)c4ccccc4)cc3)nc2)cc1` (some centres unmarked) [Compound 934], for which the EC50 under setting [2] fell in the range of 5000 to 10000 nM.

Turning to `Cc1ccccc1C1CCN(c2cnc(-c3ccc(C[C@H](NC(=O)c4ccc(C(C)(C)C)s4)C(=O)N4CC(C(=O)O)C4)cc3)nc2)CC1` [Compound 1475], the EC50 under setting [1] is below 800 nM.

Consider `CCCCCCc1nc(-c2cnc(-c3ccc(C[C@H](NC(=O)c4ccc(C(C)(C)C)cc4)C(=O)O)cc3)nc2)no1` [Compound 248, (S)-2-(4-(tert-butyl)benzamido)-3-(4-(5-(5-hexyl-1,2,4-oxadiazol-3-yl)pyrimidin-2-yl)phenyl)propanoic acid], for which the EC50 under setting [2] was 2500 to 5000 nM.

As for `Cc1ccc(C2CCN(c3cnc(-c4ccc(C[C@H](NC(=O)c5ccc(C(C)(C)C)s5)C(=O)N5CC(C(=O)O)C5)cc4)nc3)CC2)cc1` [Compound 1430], under setting [1], the EC50 was below 800 nM.

`CC[C@H]1CC[C@H](c2ccc(-c3cnc(-c4ccc(C[C@H](NC(=O)c5ccc(C)cc5)C(=O)O)cc4)nc3)cc2)CC1` [Compound 1371]: the EC50 under setting [1] fell in the range of 800 to 2500 nM.

As for `CCCCCCCOc1ccc(-c2cnc(-c3ccc(C[C@H](NC(=O)c4ccc(C(C)(C)C)s4)C(=O)N4CC(C(=O)N(C)C)C4)cc3)nc2)cc1` [Compound 974], under setting [2], the EC50 was in the range of 2500 to 5000 nM.

As for `CCCCCCCOc1ccc(-c2cnc(-c3ccc(C[C@H](NC(=O)c4ccc(Oc5ccccc5)cc4)C(=O)N[C@H](C)C(=O)O)cc3)nc2)cc1` [Compound 824], the EC50 under setting [2] is below 800 nM.

As for `COc1ccc(-c2ccc(-c3cnc(-c4ccc(C[C@H](NC(=O)c5ccc(C(C)(C)C)s5)C(=O)N5CC(C(=O)O)C5)cc4)nc3)c(F)c2)cc1` [Compound 1329], the EC50 under setting [1] is below 800 nM.

On to `CCCCCCCOc1ccc(-c2cnc(-c3ccc(C[C@H](NC(=O)c4ccc(C(C)(C)C)s4)C(=O)NC(CCCC)C(=O)O)cc3)nc2)cc1` (some centres unmarked) [Compound 609], for which the EC50 under setting [2] is below 800 nM.

Take `CC(C)CCOc1ccc(-c2cnc(-c3ccc(C[C@H](NC(=O)c4ccc(C(C)(C)C)s4)C(=O)N4CC(C(=O)O)C4)cc3)nc2)cc1` [Compound 799]: the EC50 under setting [2] lay in the range of 800 to 2500 nM.

Regarding `CCC[C@H]1CC[C@H](C2CCN(c3cnc(-c4ccc(CC(NC(=O)c5ccc(C(C)(C)C)s5)C(=O)NS(=O)(=O)CC(C)(C)C)cc4)nc3)CC2)CC1` (some centres unmarked) [Compound 1544], the EC50 under setting [1] was below 800 nM.

With `CCCCCCCOc1ccc(-c2cnc(-c3ccc(C[C@H](NC(=O)c4ccc(CCC)cc4)C(=O)N4CC[C@H](C(=O)O)C4)cc3)nc2)cc1` [Compound 853], the EC50 under setting [2] fell in the range of 800 to 2500 nM.

As to `CC[C@H]1CC[C@H](c2ccc(-c3ccc(-c4ccc(C[C@H](NC(=O)c5ccc(C(C)(C)C)s5)C(=O)O)cc4)nc3)cc2)CC1` [Compound 1333, (S)-2-(5-(tert-butyl)thiophene-2-carboxamido)-3-(4-(5-(4-((1r,4r)-4-ethylcyclohexyl)phenyl)pyridin-2-yl)phenyl)propanoic acid], the EC50 under setting [1] fell in the range of 2500 to 5000 nM.

As for `C[C@@H](NC(=O)[C@H](Cc1ccc(-c2ncc(/C=C/c3ccc(C(F)(F)F)cc3)cn2)cc1)NC(=O)c1ccc(C(C)(C)C)s1)C(=O)O` [Compound 1252], the EC50 under setting [1] lay within 800 to 2500 nM.

As to `CC[C@H]1CC[C@H](c2ccc(-c3cnc(-c4ccc(C[C@H](NC(=O)c5ccc(S(C)(=O)=O)cc5)C(=O)O)cc4)nc3)cc2)CC1` [Compound 1379], under setting [1], the EC50 was below 800 nM.

`CC(C)CCc1noc(-c2cnc(-c3ccc(C[C@H](NC(=O)c4ccc(C(C)(C)C)cc4)C(=O)NCCC(=O)O)cc3)nc2)n1` [Compound 749]: the EC50 under setting [2] is 800 to 2500 nM.

Take `CCCCCCCc1ccc(-c2cnc(-c3ccc(C[C@H](NC(=O)c4ccc(C(C)(C)C)s4)C(=O)N4CC[C@H](C(=O)O)C4)cc3)nc2)cc1` [Compound 765]: the EC50 under setting [2] lay within 800 to 2500 nM.

Regarding `CCCCCCCOc1ccc(-c2cnc(-c3ccc(C[C@H](NC(=O)c4cnn(C(C)(C)C)c4)C(=O)N4CCC[C@H]4C(=O)O)cc3)nc2)cc1` [Compound 1068], under setting [2], the EC50 was in the range of 800 to 2500 nM.

`CCCCCCCOc1ccc(-c2cnc(-c3ccc(C[C@H](NC(=O)c4ccc(C(C)(C)C)s4)C(=O)N4CC=CC4C(=O)O)cc3)nc2)cc1` (some centres unmarked) [Compound 610]: the EC50 under setting [2] is below 800 nM.

For `CC(C)(C)c1ccc(C(=O)N[C@@H](Cc2ccc(-c3ncc(-c4ccc(OCC5CCCC5)cc4)cn3)cc2)C(=O)NC(C(=O)O)C(O)c2ccccc2)s1` (some centres unmarked) [Compound 940], under setting [2], the EC50 fell in the range of 800 to 2500 nM.

As to `CCCCCCCOc1ccc(-c2cnc(-c3ccc(C[C@H](NC(=O)c4ccc(C(C)(C)C)s4)C(=O)N4C[C@@H](F)C[C@@H]4C(=O)O)cc3)nc2)cc1` [Compound 871], the EC50 under setting [2] was in the range of 2500 to 5000 nM.

With `CCCCCCCOc1ccc(-c2cnc(-c3ccc(C[C@H](NC(=O)c4ccc(OCC)cc4)C(=O)N4CC[C@H](C(=O)O)C4)cc3)nc2)cc1` [Compound 848], under setting [2], the EC50 lay within 2500 to 5000 nM.

Consider `CCC(CC)Oc1ccc(-c2cnc(-c3ccc(C[C@H](NC(=O)c4ccc(C(C)(C)C)cc4)C(=O)NCCC(=O)O)cc3)nc2)cc1` [Compound 696], for which the EC50 under setting [2] lay within 2500 to 5000 nM.

Turning to `C[C@@H](NC(=O)[C@H](Cc1ccc(-c2ncc(-c3ccc(C4=CCC(C)(C)CC4)cc3)cn2)cc1)NC(=O)c1ccc(C(C)(C)C)s1)C(=O)O` [Compound 1150], under setting [2], the EC50 was below 800 nM.

Take `CCCCCCCOc1ccc(-c2cnc(-c3ccc(C[C@H](NC(=O)c4ccc(C(F)(F)F)s4)C(=O)N[C@H](C)C(=O)O)cc3)nc2)cc1` [Compound 815]: the EC50 under setting [2] was below 800 nM.

`CCCCCCCOc1ccc(-c2cnc(-c3ccc(C[C@H](NC(=O)c4ccc(C(C)(C)C)s4)C(=O)N[C@@H](CC(=O)O)C(=O)N4CCCC4)cc3)nc2)cc1` [Compound 528]: the EC50 under setting [2] was below 800 nM.

For `CCCCCCCOc1ccc(-c2cnc(-c3ccc(C[C@H](NC(=O)c4ccc(C(C)(C)C)s4)C(=O)N4CCCC4CC(=O)O)cc3)nc2)cc1` (some centres unmarked) [Compound 621], the EC50 under setting [2] was 2500 to 5000 nM.

On to `CCCCCCNc1ccc(-c2cnc(-c3ccc(C[C@H](NC(=O)c4ccc(C(C)(C)C)cc4)C(=O)N[C@H](C)C(=O)O)cc3)nc2)cc1` [Compound 729], for which the EC50 under setting [2] lay within 800 to 2500 nM.

For the compound `CCc1ccc(C(=O)N[C@@H](Cc2ccc(-c3ncc(-c4ccc([C@H]5CC[C@H](CC)CC5)cc4)cn3)cc2)C(=O)O)cn1` [Compound 1390], the EC50 under setting [1] fell in the range of 5000 to 10000 nM.

For the compound `CC(C)Oc1ccc(-c2cnc(-c3ccc(C[C@H](NC(=O)c4ccc(C(C)(C)C)s4)C(=O)N4CC(C(=O)O)C4)cc3)nc2)cc1` [Compound 782], under setting [2], the EC50 lay in the range of 800 to 2500 nM.

As for `CCc1ccc(C2CN(c3cnc(-c4ccc(CC(NC(=O)c5ccc(C(C)(C)C)s5)C(=O)N5CC(C(=O)O)C5)cc4)nc3)C2)cc1` (centres unmarked) [Compound 1418], the 50% effective concentration (EC50) under setting [1] lay within 5000 to 10000 nM.

With `CCC[C@H]1CC[C@H](C2CCN(c3cnc(-c4ccc(C[C@H](NC(=O)c5ccc(C(C)(C)C)s5)C(=O)N[C@@H](CC(=O)O)C(=O)O)cc4)nc3)CC2)CC1` [Compound 1463], the half-maximal effective concentration (EC50) under setting [1] was below 800 nM.

`CCCCCCCOc1ccc(-c2cnc(-c3ccc(C[C@H](NC(=O)c4ccc(C(C)(C)C)cc4)C(=O)NC(CC(=O)O)c4ccc(OC)cc4)cc3)nc2)cc1` (some centres unmarked) [Compound 552]: the EC50 under setting [2] lay within 800 to 2500 nM.

In the case of `CC(C)Sc1ccc(-c2cnc(-c3ccc(C[C@H](NC(=O)c4ccc(C(C)(C)C)s4)C(=O)N[C@H](C)C(=O)O)cc3)nc2)cc1` [Compound 1035], under setting [2], the EC50 was in the range of 800 to 2500 nM.

For `CCCCCOc1ccc(-c2cnc(-c3ccc(C[C@H](NC(=O)c4ccc(C(C)(C)C)s4)C(=O)N4CC(C(=O)O)C4)cc3)nc2)cc1` [Compound 787], the EC50 under setting [2] lay in the range of 800 to 2500 nM.

On to `CC(C)CCOc1ccc(-c2cnc(-c3ccc(C[C@H](NC(=O)c4ccc(C(C)(C)C)cc4)C(=O)NCCC(=O)O)cc3)nc2)cc1` [Compound 456], for which the EC50 under setting [2] lay within 800 to 2500 nM.

Turning to `CCCc1ccc(C2CN(c3cnc(-c4ccc(C[C@H](NC(=O)c5ccc(C(C)(C)C)s5)C(=O)N5CC(C(=O)O)C5)cc4)nc3)C2)cc1` [Compound 1502], the EC50 under setting [1] fell in the range of 2500 to 5000 nM.

As to `CC(C)(C)c1ccc(C(=O)N[C@@H](Cc2ccc(-c3ncc(-c4ccc(OCC5CCC(C(C)(C)C)CC5)cc4)cn3)cc2)C(=O)NCCC(=O)O)cc1` (some centres unmarked) [Compound 803], the EC50 under setting [2] fell in the range of 800 to 2500 nM.

Consider `CCc1ccc(C(=O)N[C@@H](Cc2ccc(-c3ncc(-c4ccc(OCCCC(C)C)cc4)cn3)cc2)C(=O)N2CC(C(=O)O)C2)s1` [Compound 1241], for which, under setting [1], the EC50 was 800 to 2500 nM.

With `CC(C)(C)c1ccc(C(=O)N[C@@H](Cc2ccc(-c3ncc(-c4ccc(-c5ccc(F)cc5)cc4)cn3)cc2)C(=O)O)s1` [Compound 1354], the EC50 under setting [1] lay in the range of 2500 to 5000 nM.

As to `CCCc1ccc(-c2ccc(-c3cnc(-c4ccc(C[C@H](NC(=O)c5ccc(CC)s5)C(=O)N5CC(C(=O)O)C5)cc4)nc3)c(F)c2)cc1` [Compound 1397], the EC50 under setting [1] is below 800 nM.

On to `CC(C)(C)c1ccc(C(=O)NC(Cc2ccc(-c3ncc(N4CCC(C#N)(c5ccccc5)CC4)cn3)cc2)C(=O)N2CC(C(=O)O)C2)s1` (centres unmarked) [Compound 1423], for which, under setting [1], the EC50 was 800 to 2500 nM.

On to `CC(C)CCCOc1ccc(-c2cnc(-c3ccc(C[C@H](NC(=O)c4ccc(C5CC5)cc4)C(=O)N4CC(C(=O)O)C4)cc3)nc2)cc1` [Compound 1233], for which the EC50 under setting [1] was in the range of 800 to 2500 nM.

For `CCCCCCCOc1ccc(-c2cnc(-c3ccc(C[C@H](NC(=O)c4ccc(C(C)(C)C)s4)C(=O)NS(=O)(=O)CC(=O)O)cc3)nc2)cc1` [Compound 434], the EC50 under setting [2] fell in the range of 800 to 2500 nM.

Consider `CCCCCCCOc1ccc(-c2cnc(-c3ccc(C[C@H](NC(=O)c4ccc(Cc5ccccc5)cc4)C(=O)N[C@H](C)C(=O)O)cc3)nc2)cc1` [Compound 825], for which the EC50 under setting [2] is below 800 nM.

On to `CC(C)(C)OC(=O)N1CCC(C2CCN(c3cnc(-c4ccc(C[C@H](NC(=O)c5ccc(C(C)(C)C)s5)C(=O)N5CC(C(=O)O)C5)cc4)nc3)CC2)CC1` [Compound 1415], for which, under setting [1], the EC50 is 5000 to 10000 nM.
